From patent US20220162229A1, “HETEROCYCLIC COMPOUNDS AND USES THEREOF” (Nuvation Bio Inc., priority 2019, published 2022)
Read-outs that look alike come from different tables or passages of the source.

Legend:
[1] = target: T1, WEE1 kinase enzyme (Homo sapiens, UniProt P30291); experiment: WEE1 IC50 determination, LanthaScreen Terbium Labeled TR-FRET kinase assay; assay type: biochemical; details: WEE1 enzyme 1 nM, ATP 10 μM, 1 h
T1 construct: purchased Invitrogen, Life Technologies, Grand Island, N.Y. PR7373A
Method: IC50 values of compounds against WEE1 kinase enzyme were determined by LanthaScreen™ Terbium Labeled TR-FRET assay. Kinase assays were performed in 1× kinase buffer (#PV6135, Invitrogen, Life Technologies, Grand Island, N.Y.) where total reaction volume is 10 μL in low-volume 384-well plates (#4511, Corning). Serially diluted compounds (3-fold) were incubated with WEE1 Enzyme (1 nM) (#PR7373A, Invitrogen, Life Technologies, Grand Island, N.Y.) for 10 min; a mixture of ATP (10 μM) (#A1852, Sigma, St. Louis, Mo.) and fluorescent-PolyGT substrate (200 nM) (#PV3610, Invitrogen, Life Technologies, Grand Island, N.Y.) was added and incubated in dark at room temperature for 1 h. After 1 h, 10 μL stop solution containing terbium labeled antibody (4 nM) (#PV3529, Invitrogen, Life Technologies, Grand Island, N.Y.) and EDTA (#E5134, Sigma, St. Louis, Mo.) (20 mM) in TR-FRET dilution buffer (#PV3574, Invitrogen, Life Technologies, Grand Island, N.Y.) was added. Readings were taken in a Synergy Neo plate reader (BioTek, Winooski, Vt.) at single excitation of 340 nm and dual emission at 495 nm and 520 nm respectively.
The % activity of test samples was calculated as (Sample−Min)*100/(Max−Min). [Max: DMSO control, complete reaction with enzyme & DMSO and Min: No enzyme & DMSO]. […]

[2] = test system: U-87 MG; experiment: Cytotoxicity assay (resazurin) in U-87 MG cell line; assay type: cell-based; details: Homo sapiens, read-out: U-87 MG IC50
Method: (§1) A427 (HTB-53; ATCC), a lung epithelial cell line, was seeded in medium (MEM, 41090101; Gibco) at a cell count of 1500 cells per 100 μL per well in a 96 well edge plate (167425; ThermoFisher). Cells were allowed to grow at 37° C. for 24 hr in 5% CO2 environment (culture conditions) in a Nuaire incubator (humidified). Serially diluted test compounds (100 μL) within the desired testing concentration ranges were added to the culture plate and the cells further incubated in culture conditions for 72 hr. The experiment was terminated at the designated incubation time by replacing the medium with 100 μL of 1 mM of resazurin (R7017; Sigma) prepared in culture medium, and the plates were further incubated in culture conditions for 4-6 hr. Fluorescence was recorded using a multimodal plate reader (Biotek Synergy Neo) at an excitation wavelength of 535 nm and emission wavelength of 590 nm to obtain relative fluorescence units. Data were analysed as follows: the background fluorescence (blank containing only medium) value was subtracted from each reading and normalized with the vehicle control (DMSO treated cells) to obtain percent survival/proliferation. […] Potency of compounds in other cell lines (such as A549, As-Pc-1, Panc 10.05, A172, U-87 MG) may be determined in an analogous manner.

[3] = test system: As-Pc-1; experiment: Cytotoxicity assay (resazurin) in As-Pc-1 cell line; assay type: cell-based; details: Homo sapiens, read-out: As-Pc-1 IC50
Method: as §1

T1 sequence (P30291 whole entry): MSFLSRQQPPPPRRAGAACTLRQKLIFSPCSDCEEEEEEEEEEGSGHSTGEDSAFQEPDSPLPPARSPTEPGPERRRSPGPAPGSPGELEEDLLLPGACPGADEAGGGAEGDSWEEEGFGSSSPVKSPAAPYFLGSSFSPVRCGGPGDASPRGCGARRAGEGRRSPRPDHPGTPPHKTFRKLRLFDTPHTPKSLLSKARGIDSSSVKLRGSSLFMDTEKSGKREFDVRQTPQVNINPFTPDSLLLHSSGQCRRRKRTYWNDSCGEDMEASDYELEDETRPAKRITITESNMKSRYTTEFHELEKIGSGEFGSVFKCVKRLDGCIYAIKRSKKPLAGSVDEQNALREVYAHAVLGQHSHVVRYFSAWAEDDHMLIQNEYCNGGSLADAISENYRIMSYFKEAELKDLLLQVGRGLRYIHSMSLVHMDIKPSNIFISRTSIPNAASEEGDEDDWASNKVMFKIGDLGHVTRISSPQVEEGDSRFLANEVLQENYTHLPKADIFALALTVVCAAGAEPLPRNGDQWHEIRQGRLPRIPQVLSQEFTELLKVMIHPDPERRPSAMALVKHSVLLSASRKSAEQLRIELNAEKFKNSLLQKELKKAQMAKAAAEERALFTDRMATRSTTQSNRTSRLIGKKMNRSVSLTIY

| Structure (SMILES) | IC50 [1] [µM] | IC50 ([2]; U-87 MG, 72 h) [µM] | IC50 ([3]; ASPC1, 72 h) [µM] | IC50 ([2]; U-87 MG cells, 72 hr incubation, inhibition of proliferation) [µM] | IC50 ([3]; ASPC1, As-Pc-1 cells, 72 hr incubation, inhibition of proliferation) [µM] |
| --- | --- | --- | --- | --- | --- |
| CC1Oc2nc(Nc3ccc4c(c3)CNCC4)ncc2C(=O)N1c1c(Cl)cccc1Cl (stereo not drawn) [1.44, 3-(2,6-dichlorophenyl)-2-methyl-7-((1,2,3,4-tetrahydroisoquinolin-7-yl)amino)-2,3-dihydro-4H-pyrimido[5,4-e][1,3]oxazin-4-one] | 0.133 | 11.4 | 19.5 |  |  |
| CC1Oc2nc(Nc3ccc4c(c3)CCNC4(C)C)ncc2C(=O)N1c1c(Cl)cccc1Cl (stereo not drawn) [1.4, 3-(2,6-dichlorophenyl)-7-((1,1-dimethyl-1,2,3,4-tetrahydroisoquinolin-6-yl)amino)-2-methyl-2,3-dihydro-4H-pyrimido[5,4-e][1,3]oxazin-4-one] | 0.127 |  |  | 10.9 | 8.5 |
